In PubChem BioAssay (NCI):
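Where inhibition never reached the appropriate level, the endpoint shown equals the highest concentration tested. Otherwise, values were interpolated linearly from a five-concentration, 48-hour dose response in 96-well plates. GI50 = concentration required for 50% inhibition of growth. TGI marks complete inhibition of growth.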

Key:
Assay in all cases: NCI tumour cell line growth inhibition, 48 h
DU-145 prostate = system: DU-145 prostate
LOX IMVI melanoma = system: LOX IMVI melanoma
MCF7 breast = system: MCF7 breast
PC-3 prostate = system: PC-3 prostate
RXF 393 renal = system: RXF 393 renal
SF-539 CNS = system: SF-539 CNS
SK-MEL-2 melanoma = system: SK-MEL-2 melanoma
SK-MEL-5 melanoma = system: SK-MEL-5 melanoma
SW-620 colon = system: SW-620 colon
UO-31 renal = system: UO-31 renal

Structure (SMILES) | TGI (DU-145 prostate) [µM] | TGI (LOX IMVI melanoma) [µM] | TGI (MCF7 breast) [µM] | TGI (PC-3 prostate) [µM] | TGI (RXF 393 renal) [µM] | TGI (SF-539 CNS) [µM] | TGI (SK-MEL-2 melanoma) [µM] | TGI (SK-MEL-5 melanoma) [µM] | TGI (SW-620 colon) [µM] | TGI (UO-31 renal) [µM] | GI50 (DU-145 prostate) [µM] | GI50 (LOX IMVI melanoma) [µM] | GI50 (MCF7 breast) [µM] | GI50 (PC-3 prostate) [µM] | GI50 (RXF 393 renal) [µM] | GI50 (SF-539 CNS) [µM] | GI50 (SK-MEL-2 melanoma) [µM] | GI50 (SK-MEL-5 melanoma) [µM] | GI50 (SW-620 colon) [µM] | GI50 (UO-31 renal) [µM]
CNC(C)C(O)c1ccc2oc3cc(=O)c4ccccc4c-3nc2c1 (stereo not given) | 18 | 26.7 | 41.7 | > 100 | 84.8 | 5.99 | 64.2 | 6.68 | > 100 | 67 | – | – | – | – | – | – | – | – | – | –
C(=Nc1ccc2c(c1)Cc1ccccc1-2)c1ccccn1 | > 100 | > 100 | – | > 100 | > 100 | – | > 100 | > 100 | > 100 | > 100 | – | – | – | – | – | – | – | – | – | –
O=c1cc(CF)[nH]c(=S)[nH]1 | > 100 | > 100 | – | > 100 | > 100 | – | – | > 100 | > 100 | > 100 | – | – | – | – | – | – | – | – | – | –
COc1ccc(/C=N/n2cnc3c(c2=O)SC(=C(C#N)C#N)N3c2ccccc2)cc1 | – | – | – | – | – | > 100 | – | > 100 | > 100 | > 100 | – | – | – | – | – | – | – | – | – | –
N[C@H](Cc1ccc2oc3cc(=O)c4ccccc4c-3nc2c1)C(=O)O | 51.7 | > 100 | 65 | – | > 100 | > 100 | – | 41.1 | > 100 | > 100 | – | – | – | – | – | – | – | – | – | –
CCCn1cnc2c(SCc3ccc(Cl)cc3)nc(N)nc21 | > 100 | 50.8 | > 100 | 57.8 | > 100 | – | 41.3 | 33.4 | > 100 | > 100 | – | – | – | – | – | – | – | – | – | –
O=C(N[C@@H](Cc1coc2ccccc12)B(O)O)[C@@H]1C[C@H]2CC[C@@H]1O2 | > 100 | 34.5 | > 100 | > 100 | 5.94 | 6.12 | > 100 | 35.3 | > 100 | 11.3 | 7.5 | 5.21 | 3.25 | 41.2 | 1.86 | 1.72 | 6.08 | 4.25 | 3.3 | 2
CCCO[C@@H]1[C@@H](OC(C)=O)[C@@H](OC(C)=O)C(C)(C)/C=C/[C@H](C)C(=O)[C@@]2(OC(C)=O)C[C@@](C)(OC(C)=O)[C@H](OC(C)=O)[C@@H]2[C@H]2OC(=O)CC[C@@]12OC(=O)c1ccccc1 | > 25 | > 25 | > 25 | > 25 | > 25 | > 25 | > 25 | > 25 | > 25 | > 25 | – | – | – | – | – | – | – | – | – | –
COc1ccc(C2COc3c(ccc(O)c3C)C2)cc1OC (stereo not given) | – | 128 | > 200 | – | 131 | 197 | 154 | 24.6 | > 200 | 178 | – | – | – | – | – | – | – | – | – | –
CN(C)CCNC(=O)c1cccc2[nH]c(-c3ccccn3)nc12 | – | > 90.1 | > 100 | – | > 100 | > 100 | > 100 | 48.7 | > 100 | > 72.4 | – | – | – | – | – | – | – | – | – | –
Nc1nc(SCc2ccccc2Cl)c2[nH]cnc2n1 | – | > 100 | – | – | > 100 | > 100 | > 100 | > 100 | > 100 | > 100 | – | – | – | – | – | – | – | – | – | –
C/C(=N\NC(=S)N1CCCC1)c1nc2ncccc2[nH]1 | 13.1 | 13.1 | 13.4 | > 100 | – | 0.523 | 46.8 | 2.93 | 64.4 | 0.492 | – | – | – | – | – | – | – | – | – | –
Cc1nc2ccc(S(=O)(=O)Nc3nccs3)cc2c(=O)n1NS(=O)(=O)c1nccs1 | > 100 | – | > 100 | > 100 | > 100 | > 100 | > 100 | > 100 | > 100 | > 100 | – | – | – | – | – | – | – | – | – | –
C=CCCC1(C)CCCNC1=S (stereo not given) | – | > 100 | – | – | > 100 | > 100 | > 100 | > 100 | > 100 | > 100 | – | – | – | – | – | – | – | – | – | –
COc1ccc2c(c1)c(-c1nc(-c3c[nH]c4ncccc34)cs1)cn2CCCCN1CCCCC1 | 3.22 | – | – | 2.93 | – | – | 3.54 | – | – | 2.77 | 1.73 | – | – | 1.52 | – | – | 1.8 | – | – | 1.38
CCCCC1C=Cn2c(=O)oc3c(OC(C)C)c(C)c(O)c1c32 (stereo not given) | 5.5 | 5.52 | 1.81 | 14.2 | – | 19.2 | 5.07 | 6.59 | 11.9 | 7.02 | – | – | – | – | – | – | – | – | – | –
O=C1c2ccccc2OCC12OC21C=CC(Cl)=CC1 (stereo not given) | 38.6 | 30.4 | > 100 | > 100 | 46.8 | > 100 | 59.1 | 28.3 | > 100 | 65.1 | – | – | – | – | – | – | – | – | – | –
CCC(=O)OCN(C)c1nc(N(C)COC(=O)CC)nc(N(C)COC(=O)CC)n1 | > 100 | 70.3 | > 100 | > 100 | 25.5 | – | 42 | 52.5 | > 100 | > 100 | – | – | – | – | – | – | – | – | – | –
